Results taken from patent publication EP4692072A1, “PHOTOCHROMIC COMPOUND, PROPARGYL ALCOHOL COMPOUND, CURABLE COMPOSITION, OPTICAL ARTICLE, LENS, AND SPECTACLES” (TOKUYAMA CORPORATION, priority 2023, dated 2024).

Legend:
Type in all cases: physicochemical
[1] = Accelerated deterioration (xenon weather meter X25, 120 hours) of photochromic laminate prepared by coating method; details: 0.25 mmol per 100 g monomers, A120/A0×100 after 120 hours xenon weather meter
Excerpt: First, the photochromic compound obtained in Example 1, a photoinitiator, and a polymerizable compound were mixed to obtain a curable composition.
Polyethylene glycol dimethacrylate (average molecular weight: 736): 42 parts by mass • Polyethylene glycol dimethacrylate (average molecular weight: 536): 12 parts by mass • Trimethylolpropane trimethacrylate: 38 parts by mass γ-methacryloyloxypropyl trimethoxysilane: 2 parts by mass Glycidyl methacrylate: 1 part by mass
Note that the photochromic compound was added to the curable composition so that the amount of the photochromic compound was 0.25 mmol based on 100 g of the total amount of the radical-polymerizable monomers.
Phenylbis(2,4,6-trimethylbenzoyl)phosphine oxide (photoinitiator: Omnirad 819): 0.3 parts by mass Ethylene bis(oxyethylene) bis[3-(5-tert-butyl-4-hydroxy-m-tolyl)propionate] (stabilizer, Irganox 245): 1 part by mass Bis(1,2,2,6,6-pentamethyl-4-piperidyl) sebacate: 3 parts by mass Leveling agent (L7001) manufactured by Dow Corning Toray Co.,Ltd.: 0.1 part by mass
First, a thiourethane-based plastic lens having a central thickness of 2 mm and a refractive index of 1.60 was prepared as the optical substrate. Note that this thiourethane-based plastic lens was pre-treated by alkaline etching with a 10% sodium hydroxide aqueous solution at 50°C for 5 minutes, followed by sufficient washing with distilled water.
A surface of the above-described plastic lens was coated with a moisture-curable primer (product name: TR-SC-P, manufactured by Tokuyama Corporation) at a rotation frequency of 70 rpm for 15 seconds, followed by 1000 rpm for 10 seconds, using a spin coater (1H-DX2, manufactured by MIKASA CO., LTD), Subsequently, about 2 g of the photochromic curable composition obtained above was spin-coated at a rotation frequency of 60 rpm for 40 seconds, followed by 600 rpm for 10 to 20 seconds, to form a photochromic coating layer with a film thickness of 40 µm.
The lens with the surface coated with the photochromic curable composition (photochromic coating layer) was irradiated with light using a metal halide lamp with an output power of 200 mW/cm^2 in a nitrogen gas atmosphere for 90 seconds to cure the coating film. Subsequently, the lens was further heated at 110°C for 1 hour to prepare a photochromic laminate having a photochromic layer.
• [1] Maximum Absorption Wavelength (λmax): The maximum absorption wavelength after color development, measured using a spectrophotometer (instantaneous multichannel photodetector MCPD3000) manufactured by Otsuka Electronics Co., Ltd. was used as an indicator for the color tone during the color development. • [2] 23°C Color Optical Density (A23): A difference between an absorbancy measured after light irradiation at 23°C for 300 seconds {ε(300)} and an absorbancy without light irradiation ε(0) at the maximum absorption wavelength was used as an indicator for the color optical density. […] 23°C color fading half-life [τ1/2 (sec.)]: A time required for the absorbancy of the sample at the maximum absorption wavelength to decrease to 1/2 of {ε(300)-ε(0)} when the light irradiation was terminated after the light irradiation at 23°C for 300 seconds, was used as an indicator for the color fading speed. The shorter this time, the higher the color fading speed. • [4] Residual rate (A120/A0×100): The obtained photochromic plastic lens was subjected to accelerated deterioration using a xenon weather meter X25 manufactured by Suga Test Instruments Co., Ltd. for 120 hours. Subsequently, the color optical density was evaluated before and after the test, then a color optical density before the test (A0) and a color optical density after the test (A120) were measured, and a ratio (A120/A0) was defined as a residual rate. The residual rate was used as an indicator for a color developing durability. The higher the residual rate, the higher the color developing durability. […]

[2] = Accelerated deterioration (xenon weather meter X25, 120 hours) of photochromic cured product prepared by kneading method; details: 1 mm cured product, 0.106 mmol per 100 g monomer, A120/A0×100 after 120 hours xenon weather meter
Experimental: (§1) • [1] Maximum Absorption Wavelength (λmax): The maximum absorption wavelength after color development, measured using a spectrophotometer (instantaneous multichannel photodetector MCPD3000) manufactured by Otsuka Electronics Co., Ltd. was used as an indicator for the color tone during the color development. • [2] 23°C Color Optical Density (A23): A difference between an absorbancy measured after light irradiation at 23°C for 300 seconds {ε(300)} and an absorbancy without light irradiation ε(0) at the maximum absorption wavelength was used as an indicator for the color optical density. […] 23°C color fading half-life [τ1/2 (sec.)]: A time required for the absorbancy of the sample at the maximum absorption wavelength to decrease to 1/2 of {ε(300)-ε(0)} when the light irradiation was terminated after the light irradiation at 23°C for 300 seconds, was used as an indicator for the color fading speed. The shorter this time, the higher the color fading speed. • [4] Residual rate (A120/A0×100): The obtained photochromic plastic lens was subjected to accelerated deterioration using a xenon weather meter X25 manufactured by Suga Test Instruments Co., Ltd. for 120 hours. Subsequently, the color optical density was evaluated before and after the test, then a color optical density before the test (A0) and a color optical density after the test (A120) were measured, and a ratio (A120/A0) was defined as a residual rate. The residual rate was used as an indicator for a color developing durability. The higher the residual rate, the higher the color developing durability. The results of Examples 26, 50, and Comparative Examples 1 to 8 are summarized in Table 1, and the results of Examples 27 to 49 are summarized in Tables 2 and 3.
(§2) First, the photochromic compound obtained in Example 1, additives, and a polymerizable compound were mixed to obtain a curable composition.
(§3) As the polymerizable compound, a combination of the following polymerizable monomers was used. • 1,3-bis(isocyanatomethyl)cyclohexane: 36.7 parts by mass Pentaerythritol tetrakis(3-mercaptopropionate): 39.4 parts by mass • Polyoxyethylene polyoxypropylene lauryl ether (Wonder Surf 140 manufactured by Aoki Oil Industrial Co., Ltd.): 17.4 parts by mass • 1-decanethiol: 2.8 parts by mass • RX-1 adjusted according to the method described in Patent Document 13: 3.8 parts by mass
(§4) Note that the photochromic compound was added to the curable composition so that the amount of the photochromic compound was 0.106 mmol based on 100 g of the total amount of the polymerizable monomer. The following additives were used: Dimethyltin dichloride • : 0.05 part by mass • Irganox 245: 0.1 part by mass • 2-ethylhexyl 4-methoxycinnamate: 0.6 part by mass
(§5) The prepared curable composition was thoroughly defoamed, then injected into a glass mold having a 1 mm gap, and polymerized by cast polymerization. The polymerization was carried out in an air furnace while gradually raising the temperature from 27°C to 120°C over 18 hours. After the polymerization, the cured product was removed from the glass mold to obtain a photochromic cured product having a thickness of 1 mm. The obtained photochromic cured product was evaluated in the same manner as in Example 26.
(§6) (Examples 85 to 99, and Comparative Example 14 to 18) Photochromic cured products were prepared using photochromic compounds presented in Tables 6 and 7 in the same manner as in Example 84. The results of Examples 84 and 85 and Comparative Examples 14 to 18 are summarized in Table 6, and the results of Examples 86 to 99 are summarized in Table 7.

[3] = Photochromic properties of photochromic cured product prepared by kneading method; details: 0.106 mmol per 100 g monomer; for A23: 1 mm cured product, 23°C color optical density ε(300)-ε(0); for Maximum absorption wavelength: 1 mm thiourethane cured product, after color development
Experimental: as §1, §2, §3, §4, §5, §6

Row | SMILES | Residual rate [1] | Residual rate [2] | A23 [3] | Maximum absorption wavelength [3] | further results
1 | COCCCCC1(CCCCOC)c2cc(Sc3c(C)cccc3C)ccc2-c2c1c1c(c3cc(OC)ccc23)OC(c2ccc(OC)cc2)(c2ccc(N(C)c3ccc(OC)cc3)cc2)C=C1 (stereo not drawn) [Example 11] | 60% |  |  |  | 
2 | COc1ccc(C2(c3ccc(N(C)c4ccccc4)cc3)C=Cc3c4c(c5cc(-c6ccc(N7CCOCC7)cc6)c(OC)cc5c3O2)-c2ccccc2C4(C)C)cc1 (stereo not drawn) [Example 1] | 65% | 72% | 0.96 - | 503 nm | A23 ([3]; listed as Formula (37)): 1.06 -; Maximum absorption wavelength ([3]; listed as Formula (37)): 610 nm
3 | CCN(c1ccc(OC)cc1)c1ccc(C2(c3ccc(OC)cc3)C=Cc3c4c(c5cc(-c6ccc(N7CCOCC7)cc6)c(OC)cc5c3O2)-c2ccccc2C4(C)C)cc1 (stereo not drawn) [Example 25] | 63% | 68% | 0.88 - | 505 nm | A23 ([3]; listed as Formula (88)): 0.96 -; Maximum absorption wavelength ([3]; listed as Formula (88)): 613 nm
4 | CCC1(CC)CCC2(CC1)c1cc(OC(F)(F)F)ccc1-c1c2c2c(c3cc(OC)ccc13)OC(c1ccc(N(C)c3ccccc3)cc1)(c1ccc(OC)c(C)c1)C=C2 (stereo not drawn) [Example 16] | 57% | 64% | 0.47 - | 475 nm | A23 ([3]; listed as Formula (77)): 0.86 -; Maximum absorption wavelength ([3]; listed as Formula (77)): 593 nm
5 | COCCCCC1(CCCCOC)c2ccccc2-c2c1c1c(c3cc(-c4ccc(OC)cc4OC)c(OC)cc23)OC(c2ccc(N(C)c3ccccc3)cc2)(c2ccc3c(c2)CCO3)C=C1 (stereo not drawn) [Example 62] | 61% | 67% | 1.02 - | 479 nm | A23 ([3]; listed as Formula (124)): 1.11 -; Maximum absorption wavelength ([3]; listed as Formula (124)): 594 nm
6 | COCCOCCC1(CCOCCOC)c2cc(C)ccc2-c2c1c1c(c3cc(C)ccc23)OC(c2ccc(N(C)c3ccc(F)cc3)cc2)(c2ccc(OC)c(OC)c2)C=C1 (stereo not drawn) [Example 8] | 60% | 68% | 0.51 - | 476 nm | A23 ([3]; listed as Formula (57)): 1.24 -; Maximum absorption wavelength ([3]; listed as Formula (57)): 604 nm
7 | CCCC1(CCC)c2ccccc2-c2c1c1c(c3cc(OC)c(-c4ccc(N(C)c5ccccc5)cc4)cc23)OC(c2ccc(C)cc2)(c2ccc(N(C)c3ccccc3)cc2)C=C1 (stereo not drawn) [Example 24] | 62% | 65% | 1.32 - | 505 nm | A23 ([3]; listed as Formula (86)): 1.31 -; Maximum absorption wavelength ([3]; listed as Formula (86)): 607 nm
8 | COc1ccc(N(C)c2ccc(C3(c4ccc(CCO[Si](C)(C)CC[Si](O[Si](C)(C)C)(O[Si](C)(C)C)O[Si](C)(C)C)cc4)C=Cc4c5c(c6cc(N(C)c7ccccc7)c(OC)cc6c4O3)-c3ccc(C(F)(F)F)cc3C53CCC(C)(C)CC3)cc2)cc1 (stereo not drawn) [Example 60] | 62% |  |  |  | Residual rate ([1]; listed as Formula (121)): 64%
9 | CCCCC1(CCCC)c2cc(-c3ccc(OC(C)C)cc3)ccc2-c2c1c1c(c3cc(OC)ccc23)OC(c2ccc(N(C)c3ccccc3)cc2)(c2ccc(OC)c(F)c2)C=C1 (stereo not drawn) [Example 21] | 60% | 68% | 0.62 - | 490 nm | A23 ([3]; listed as Formula (83)): 1.25 -; Maximum absorption wavelength ([3]; listed as Formula (83)): 616 nm
10 | COCCC1(CCOC)c2ccccc2-c2c1c1c(c3cc(OC)c(-c4ccc(N(c5ccccc5)c5ccccc5)cc4)cc23)OC(c2ccc(Oc3ccccc3)cc2)(c2ccc(N(C)c3ccccc3)cc2)C=C1 (stereo not drawn) [Example 23] | 60% |  |  |  | 
11 | CCCCOCCC1(CCOCCCC)c2ccccc2-c2c1c1c(c3cc(OC)c(NC(=O)c4ccccc4)cc23)OC(c2ccc(N(C)c3ccccc3)cc2)(c2ccc(OC)c(F)c2)C=C1 (stereo not drawn) [Example 53] | 58% |  |  |  | Residual rate ([1]; listed as Formula (95)): 60%
